In patent publication US20230147257A1 (DONG-A ST CO., LTD., priority 2020, published 2023):
Like-named read-outs stand apart in the source and are kept apart here.

What was measured:
AhR [1] = target: T1, AhR (Homo sapiens, UniProt P35869); test: In vitro assay 1: XRE-luciferase reporter assay, antagonism in human cell line (HepG2); format: cell-based
T1 construct: host or cells: HepG2
T1 sequence (P35869 11-848): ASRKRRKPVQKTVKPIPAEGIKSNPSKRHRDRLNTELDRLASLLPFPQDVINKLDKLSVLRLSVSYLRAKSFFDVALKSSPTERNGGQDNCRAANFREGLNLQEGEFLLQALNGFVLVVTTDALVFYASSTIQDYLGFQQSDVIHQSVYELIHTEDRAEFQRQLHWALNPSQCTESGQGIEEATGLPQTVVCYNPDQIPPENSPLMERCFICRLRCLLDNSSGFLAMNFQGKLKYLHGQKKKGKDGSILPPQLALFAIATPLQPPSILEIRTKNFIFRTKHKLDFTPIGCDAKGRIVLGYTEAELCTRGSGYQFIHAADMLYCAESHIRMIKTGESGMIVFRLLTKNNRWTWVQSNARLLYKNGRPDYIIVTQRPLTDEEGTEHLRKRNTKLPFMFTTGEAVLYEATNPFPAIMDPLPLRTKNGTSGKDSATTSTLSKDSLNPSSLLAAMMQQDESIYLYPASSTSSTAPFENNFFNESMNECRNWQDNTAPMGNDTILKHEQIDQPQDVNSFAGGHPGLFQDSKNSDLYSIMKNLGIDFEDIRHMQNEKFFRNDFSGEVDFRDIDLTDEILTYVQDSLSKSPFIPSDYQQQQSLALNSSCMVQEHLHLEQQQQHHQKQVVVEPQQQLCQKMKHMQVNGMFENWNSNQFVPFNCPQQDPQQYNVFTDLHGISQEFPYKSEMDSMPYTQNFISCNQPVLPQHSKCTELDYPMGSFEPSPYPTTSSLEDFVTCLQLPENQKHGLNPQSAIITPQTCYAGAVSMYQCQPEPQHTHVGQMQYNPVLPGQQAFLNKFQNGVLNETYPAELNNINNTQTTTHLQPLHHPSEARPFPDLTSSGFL
Source text: (§1) In Vitro XRE-Luciferase Reporter Assay (In Vitro Assay 1, 2, 3)
(§2) AhR activation leads the induction of target gene expression such as CYP1A1 and CYP1B1 by AhR binding to AhR-responsive DNA elements also known as xenobiotics responsive elements (XRE). The assay for measuring AhR activity herein is the luciferase assay using cell lines transfected with luciferase reporter plasmid containing XREs at the upstream of the reporter gene. Cells transfected with XRE-luciferase reporter (XRE-Luc) plasmid drive luciferase activity reflecting activation and inhibition of AhR in the cells. In addition to transfection with XRE-reporter vector, cells were co-transfected with Nano-luciferase reporter gene construct (Nano-Luc) containing constitutively active promoter as internal control. Kynurenine (an endogenous AhR agonist) was used to stimulate cells to test antagonistic properties of the compounds. The half-maximal inhibitory concentration (IC50) or half-maximal effective concentration (EC50) value was calculated using nonlinear regression (four parameters) with Prism8.0 software (GraphPad).
In Vitro Assay 1: Antagonism in Human Cell Line
HepG2 (human hepatoma cell line) cell line with a XRE-luciferase reporter either transiently or stably (Invivogen) were plated in complete medium and incubated at 37° C. in a CO2 incubator. After 24 hours, cells were treated with kynurenine (50* or 200 μM) alone (negative control) or with test compounds for 6 hours. Luciferase activity was measured with a commercial kit such as the Promega Luciferase kit or other reagents for measuring luciferase activity. Relative luciferase activity (Firefly/Nano-Luc) was used to calculate IC50 values. The relative luciferase activity was further normalized with kynurenine alone group as the maximum control and the vehicle group as the minimum control. (IC50 values are grouped as A, B, C and D, whereby A: IC50<0.01 μM; B: 0.01<IC50<0.1 μM; C: 0.1<IC50<1.0 μM; D: IC50>1.0 μM)

AhR [2] = target: T1, AhR; test: In vitro assay 3: XRE-luciferase reporter assay, agonism in human cell line (HepG2); format: cell-based; settings: HepG2 XRE-Luc, tryptophan free medium, test compound alone, 6 hours
Source text: as §1, §2
In Vitro Assay 3: Agonism in Human Cell Line
HepG2 (human hepatoma cell line) cells co-transfected with XRE-Luc and Nano-Luc plasmids were plated in tryptophan free medium containing 1% of dialyzed fetal bovine serum and incubated overnight at 37° C. in a CO2 incubator. After 24 hours, cells were treated for 6 hours with test compounds or not. Firefly luciferase and Nano-luciferase activity was measured using Nano-glo Luciferase kit (Promega) and relative luciferase activity (Firefly/Nano-Luc) was used to calculate EC50 values. As a positive control, cells were incubated with TCDD. (EC50 Values are grouped as A, B, C and D, whereby A: EC50<0.1 μM; B: 0.1<EC50<1.0 μM; C: 1.0<EC50<10 μM; D: EC50>10 μM)

[3] = HepG2 XRE-luciferase, cells treated with kynurenine 200 μM (no *), 6 hours, read-out: Assay 1: AhR-Luc Human Antagonism (IC50)
[4] = read-out: Assay 3: AhR-Luc Human Agonism (EC50)
[5] = read-out: Assay 3: AhR-Luc Human Agonism (EC50, nM), class in brackets
[6] = HepG2 XRE-luciferase, cells treated with kynurenine 50 μM (*), 6 hours, read-out: Assay 1: AhR-Luc Human Antagonism (IC50)

Structure (SMILES)	IC50 (AhR [1]; [3]) [nM]	EC50 (AhR [2]; [4]) [nM]	EC50 (AhR [2]; [5]) [nM]	IC50 (AhR [1]; [6]) [nM]	further results
O=c1c2cc(-c3ccc(Cl)cc3)nc(-c3cccnc3)c2ncn1CC(O)CO (stereo not drawn) [Example 67, 6-(4-chlorophenyl)-3-(2,3-dihydroxypropyl)-8-(pyridin-3-yl)pyrido[3,4-d]pyrimidin-4(3H)-one]	< 10	> 30000	> 10000	–	–
Cn1cc(-c2nc(-c3ccc(Cl)cc3)cc3c(=O)n([C@H]4CC[C@H](O)CC4)cnc23)cn1 [Example 10, 6-(4-chlorophenyl)-3-((1r,4r)-4-hydroxycyclohexyl)-8-(1-methyl-1H-pyrazol-4-yl)pyrido[3,4-d]pyrimidin-4(3H)-one]	–	> 30000	> 10000	< 10	–
CC(CO)n1cnc2c(-c3cccnc3)nc(-c3ccc(OC(F)(F)F)cc3)cc2c1=O (stereo not drawn) [Example 49, 3-(1-hydroxypropan-2-yl)-8-(pyridin-3-yl)-6-(4-(trifluoromethoxy)phenyl)pyrido[3,4-d]pyrimidin-4(3H)-one]	–	9660	–	< 10	–
CC(O)Cn1cnc2c(-c3cnn(C)c3)nc(-c3ccc(C(F)(F)F)nc3)cc2c1=O (stereo not drawn) [Example 14, 3-(2-hydroxypropyl)-8-(1-methyl-1H-pyrazol-4-yl)-6-(6-(trifluoromethyl)pyridin-3-yl)pyrido[3,4-d]pyrimidin-4(3H)-one]	–	> 30000	> 10000	< 10	–
CC(CNS(C)(=O)=O)n1cnc2c(-c3cccnc3)nc(-c3ccc(Cl)cc3)cc2c1=O (stereo not drawn) [Example 89, N-(2-(6-(4-chlorophenyl)-4-oxo-8-(pyridin-3-yl)pyrido[3,4-d]pyrimidin-3(4H)-yl)propyl)methanesulfonamide]	< 10	> 30000	> 10000	–	–
CC(CO)n1cnc2c(-c3cccnc3)nc(-c3ccc(C(F)(F)F)nc3)cc2c1=O (stereo not drawn) [Example 50, 3-(1-hydroxypropan-2-yl)-8-(pyridin-3-yl)-6-(6-(trifluoromethyl)pyridin-3-yl)pyrido[3,4-d]pyrimidin-4(3H)-one]	–	2050	–	< 10	–
Cn1cc(-c2nc(-c3ccc(C(F)(F)F)cc3)cc3c(=O)n([C@H]4CC[C@H](O)CC4)cnc23)cn1 [Example 8, 3-((1r,4r)-4-hydroxycyclohexyl)-8-(1-methyl-1H-pyrazol-4-yl)-6-(4-(trifluoromethyl)phenyl)pyrido[3,4-d]pyrimidin-4(3H)-one]	–	> 30000	> 10000	< 10	–
O=c1c2cc(-c3ccc(Cl)cc3)nc(-c3cccnc3)c2ncn1C1CCN(S(=O)(=O)C2CC2)CC1 [Example 95, 6-(4-chlorophenyl)-3-(1-(cyclopropylsulfonyl)piperidin-4-yl)-8-(pyridin-3-yl)pyrido[3,4-d]pyrimidin-4(3H)-one]	< 10	> 30000	> 10000	–	–
CC(CO)n1cnc2c(-c3cnn(C)c3)nc(-c3cnn(C)c3)cc2c1=O (stereo not drawn) [Example 3, 3-(1-hydroxypropan-2-yl)-6,8-bis(1-methyl-1H-pyrazol-4-yl)pyrido[3,4-d]pyrimidin-4(3H)-one]	–	> 30000	> 10000	> 1000	–
CCC(CO)n1cnc2c(-c3cnn(C)c3)nc(-c3ccc(C(F)(F)F)cc3)cc2c1=O (stereo not drawn) [Example 54, 3-(1-hydroxybutan-2-yl)-8-(1-methyl-1H-pyrazol-4-yl)-6-(4-(trifluoromethyl)phenyl)pyrido[3,4-d]pyrimidin-4(3H)-one]	–	–	–	> 1000	–
CCC(CO)n1cnc2c(-c3cccnc3)nc(-c3ccc(C(F)(F)F)cc3)cc2c1=O (stereo not drawn) [Example 53, 3-(1-hydroxybutan-2-yl)-8-(pyridin-3-yl)-6-(4-(trifluoromethyl)phenyl)pyrido[3,4-d]pyrimidin-4(3H)-one]	–	–	–	> 1000	–
O=c1c2cc(-c3ccc(C(F)(F)F)cc3)nc(-c3cccnc3)c2ncn1-c1cccc(O)c1 [Example 62, 3-(3-hydroxyphenyl)-8-(pyridin-3-yl)-6-(4-(trifluoromethyl)phenyl)pyrido[3,4-d]pyrimidin-4(3H)-one]	< 10	–	–	–	–
Cn1cc(-c2nc(-c3ccc(Cl)cc3)cc3c(=O)n([C@@H]4CC[C@H](O)C4)cnc23)cn1 [Example 30, 6-(4-chlorophenyl)-3-((1R,3S)-3-hydroxycyclopentyl)-8-(1-methyl-1H-pyrazol-4-yl)pyrido[3,4-d]pyrimidin-4(3H)-one]	10 to 100	–	–	–	–
O=c1c2cc(-c3ccc(C(F)(F)F)cc3)nc(-c3cccnc3)c2ncn1C1CCNCC1 [Example 93, 3-(piperidin-4-yl)-8-(pyridin-3-yl)-6-(4-(trifluoromethyl)phenyl)pyrido[3,4-d]pyrimidin-4(3H)-one]	< 10	–	–	–	–
CCOP(=O)(OCC)OCC(C)n1cnc2c(-c3cccnc3)nc(-c3ccc(Cl)cc3)cc2c1=O (stereo not drawn) [Example 47, 2-(6-(4-chlorophenyl)-4-oxo-8-(pyridin-3-yl)pyrido[3,4-d]pyrimidin-3(4H)-yl)propyl diethyl phosphate]	–	–	–	–	IC50 (AhR [1]): 10 to 100 nM
CC(CO)N1CNc2c(cc(-c3ccc(Cl)cc3)nc2-c2cccnc2)C1=O (stereo not drawn) [Example 60]	10 to 100	–	–	–	–
Cn1cc(-c2nc(-c3ccc(C(F)(F)F)cc3)cc3c(=O)n([C@@H]4CCCC[C@@H]4O)cnc23)cn1 [Example 18, 3-((1R,2S)-2-hydroxycyclohexyl)-8-(1-methyl-1H-pyrazol-4-yl)-6-(4-(trifluoromethyl)phenyl)pyrido[3,4-d]pyrimidin-4(3H)-one]	< 10	–	–	–	–
O=c1c2cc(-c3ccc(Cl)cc3)nc(-c3cccnc3)c2ncn1C(CO)CO [Example 70, 6-(4-chlorophenyl)-3-(1,3-dihydroxypropan-2-yl)-8-(pyridin-3-yl)pyrido[3,4-d]pyrimidin-4(3H)-one]	< 10	–	–	–	–
CC(CO)n1cnc2c(-c3ccc(C(F)(F)F)cc3)nc(-c3cnn(C)c3)cc2c1=O (stereo not drawn) [Example 4, 3-(1-hydroxypropan-2-yl)-6-(1-methyl-1H-pyrazol-4-yl)-8-(4-(trifluoromethyl)phenyl)pyrido[3,4-d]pyrimidin-4(3H)-one]	–	–	–	> 1000	–
Cn1cc(-c2nc(-c3ccc(Cl)cc3)cc3c(=O)n(-c4cccc(O)c4)cnc23)cn1 [Example 26, 6-(4-chlorophenyl)-3-(3-hydroxyphenyl)-8-(1-methyl-1H-pyrazol-4-yl)pyrido[3,4-d]pyrimidin-4(3H)-one]	10 to 100	–	–	–	–
O=c1c2cc(-c3ccc(Cl)cc3)nc(-c3cccnc3)c2ncn1[C@H]1CCCC[C@H]1O [Example 21]	> 1000	–	–	–	–
CC(=O)OCC(C)n1cnc2c(-c3ccc(Cl)cc3)nc(Cl)cc2c1=O (stereo not drawn) [Example 7, 2-(6-chloro-8-(4-chlorophenyl)-4-oxopyrido[3,4-d]pyrimidin-3(4H)-yl)propyl acetate]	–	–	–	> 1000	–
CC(O)Cn1cnc2c(-c3cnn(C)c3)nc(-c3ccc(Cl)cc3)cc2c1=O (stereo not drawn) [Example 13, 6-(4-chlorophenyl)-3-(2-hydroxypropyl)-8-(1-methyl-1H-pyrazol-4-yl)pyrido[3,4-d]pyrimidin-4(3H)-one]	–	–	–	< 10	–
